Measurements: patent US8530650B2, “2, 5-diamino-substituted pyrido [4, 3-D] pyrimidines as autotaxin inhibitors against cancer” (MERCK PATENT GmbH, priority 2008, dated 2013)
pIC50: −log10 of the molar value.

Each compound was assayed against T1, recombinant autotaxin (Homo sapiens, UniProt Q13822) (assay: Autotaxin assay (Amplex Red, LPC substrate)). Conditions: 75 μM LPC, Amplex Red fluorescence, ten 1:3 dilutions starting at 30 μM.
T1 construct: made in house; host or cells: Hi5 insect cells (baculovirus)
Assay type: biochemical
Procedure: Autotaxin activity is measured indirectly by means of Amplex Red Reagent. In this course, Amplex Red is measured as fluorogenic indicator for generated H2O2. Autotaxin converts substrate lysophosphatidylcholine (LPC) to phosphocholine and lysophosphatidylic acid (LPA). After the conversion phosphocholine is reacted with alkaline phosphatase to obtain inorganic phosphate and choline. During the next step choline is oxidized with choline oxidase to yield betaine, whereby H2O2 is generated. H2O2 reacts with Amplex Red Reagent in the presence of peroxidase (Horseradish peroxidase) in an 1:1 stochiometry and yields highly fluorescent resorufin. The generated fluorescence is measured in a reaction-dependent kinetic mode in order to enable subtraction of fluorescence signals of possible other fluorescent compounds that are not part of the reaction from total measured fluorescence.
1.5 μl of a standard solution or of the compounds of the invention are dissolved in 20 mM Hepes pH 7.2 with maximally 7.7% DMSO in individual concentrations. The resulting solution is pre-incubated together with 10 μl (16 ng) of highly purified recombinant autotaxin in a black 384-hole microtiter plate for 30 min at 22° C. Thereafter, the reaction is started through the addition of 5 μL-a-lysophosphatidylcholine (LPC), whereby the final concentration of LPC is 75 μM. The mixture is incubated for 90 min. at 37° C. After the incubation Amplex Red Reagent, peroxidase (Horseradish peroxidase) and choline oxidase are added. The fluorescence is immediately measured at a wavelength of 612 nm with an excitation wavelength of 485 nm in a “Tecan Ultra multimode” fluorescence reader. The activity of autotaxin is indirectly calculated via the amount of detected generated H2O2.
For IC50 analysis, ten serial 1:3 dilutions starting at 30 μM for each compound were run in duplicates.
IC50 values were calculated on normalized data. For normalization, control wells were added to each assay plate and the signal of uninhibited control wells was set to 100%, whereas the signal inhibited by 500 μM C14 LPA, (Avanti Polar Lipids, Cat# 857120P) was set to 0%. Curves were fitted and IC50 values calculated by the following model using proprietary analysis software: Y=Bottom+(100−Bottom)/(1+10^((LogIC50−X)*HillSlope))
Where X is the logarithm of concentration. Y is the response; Y starts at Bottom and goes to Top with a sigmoid shape.
Protein: Recombinant autotaxin (baculoviral Hi5 expression)
Substrate: L-a-lysophosphatidyl choline (chicken egg); Avanti Polar Lipids #830071 P
Standard: C14 LPA, Avanti Polar Lipids, Cat# 857120P
Detection Reagent Amplex Red Reagent; Invitrogen #A12222; dissolved in 1.923 ml of DMSO peroxidase Type VI-A (horseradish), Sigma #P6782; dissolved in 7.45 ml of test buffer, Choline Oxidase; Sigma #C5896; dissolved in 2.47 ml test buffer
Detection Reagent Mix: 1:100 dilution of Amplex Red Regent in test buffer
Test buffer: 200 mM Tris-HCl, Merck, Cat # 1.08219, pH 7.9; 0.1% BSA, lipid free, Roche Cat#775835
In the case of `O=C(OCc1cccnc1)N1CCN(c2nccc3nc(NCc4ccccc4Cl)ncc23)CC1` [Compound 151, 4-[2-(2-Chloro-benzylamino)-pyrido[4,3-d]pyrimidin-5-yl]-piperazine-1-carboxylic acid pyridin-3-ylmethyl ester], the pIC50 was over 4.52. Compound `COc1ccccc1CNc1ncc2c(Nc3ccccc3C)nccc2n1` [Compound 34, N2-(2-Methoxy-benzyl)-N5-o-tolyl-pyrido[4,3-d]pyrimidine-2,5-diamine] has a pIC50 of over 4.52. `O=C(NCc1ccco1)C1CCN(c2nccc3nc(NCc4ccc(Cl)cc4)ncc23)CC1` [Compound 79, 1-[2-(4-Chloro-benzylamino)-pyrido[4,3-d]pyrimidin-5-yl]-piperidine-4-carboxylic acid (furan-2-ylmethyl)-amide] showed a pIC50 of over 4.52. For `COc1ccccc1CNc1ncc2c(N3CCC(C(=O)N4CCN(c5ccccn5)CC4)CC3)nccc2n1` [Compound 76, {1-[2-(2-Methoxy-benzylamino)-pyrido[4,3-d]pyrimidin-5-yl]-piperidin-4-yl}-(4-pyridin-2-yl-piperazin-1-yl)-methanone], the pIC50 was over 4.52. Compound `CN(C)C(=O)CCC(=O)N1CCN(c2nccc3nc(NCc4ccccc4Cl)ncc23)CC1` [Compound 125, 4-{4-[2-(2-Chloro-benzylamino)-pyrido[4,3-d]pyrimidin-5-yl]-piperazin-1-yl}-N,N-dimethyl-4-oxo-butyramide] has a pIC50 of over 4.52. `O=C(C1CCN(c2nccc3nc(NCc4ccccc4Cl)ncc23)CC1)N1CCCC1` [Compound 66, {1-[2-(2-Chloro-benzylamino)-pyrido[4,3-d]pyrimidin-5-yl]-piperidin-4-yl}-pyrrolidin-1-yl-methanone] was tested, and the pIC50 was over 5.30. `CC(C)OCCCNc1nccc2nc(NCc3ccccc3Cl)ncc12` [Compound 15, N2-(2-Chloro-benzyl)-N5-(3-isopropoxy-propyl)-pyrido[4,3-d]pyrimidine-2,5-diamine] was tested, and the pIC50 was over 4.52. Work on `COCCCNC(=O)C1CCN(c2nccc3nc(NCc4ccccc4Cl)ncc23)CC1` [Compound 73, 1-[2-(2-Chloro-benzylamino)-pyrido[4,3-d]pyrimidin-5-yl]-piperidine-4-carboxylic acid (3-methoxy-propyl)-amide] yielded a pIC50 of over 5.30. `CCN(CC)C(=O)C1CCN(c2nccc3nc(NCc4ccccc4OC)ncc23)CC1` [Compound 103, 1-[2-(2-Methoxy-benzylamino)-pyrido[4,3-d]pyrimidin-5-yl]-piperidine-4-carboxylic acid diethylamide] was tested, and the pIC50 was over 5.00. In the case of `CNC(=O)C1CCN(c2nccc3nc(NCc4ccccc4Cl)ncc23)CC1` [Compound 139, 1-[2-(2-Chloro-benzylamino)-pyrido[4,3-d]pyrimidin-5-yl]-piperidine-4-carboxylic acid methylamide], the pIC50 was over 4.52. `CCOC(=O)N1CCN(c2nccc3nc(NCc4ccccc4Cl)ncc23)CC1` [Compound 114, 4-[2-(2-Chloro-benzylamino)-pyrido[4,3-d]pyrimidin-5-yl]-piperazine-1-carboxylic acid ethyl ester] showed a pIC50 of over 5.30. Compound `CC(=O)c1ccc(Nc2nccc3nc(NCc4ccccc4Cl)ncc23)cc1` [Compound 13, 1-{4-[2-(2-Chloro-benzylamino)-pyrido[4,3-d]pyrimidin-5-ylamino]-phenyl}-ethanone] has a pIC50 of over 4.52. In the case of `COc1ccc(Nc2nccc3nc(NCc4ccccc4OC)ncc23)cc1` [Compound 35, N2-(2-Methoxy-benzyl)-N5-(4-methoxy-phenyl)-pyrido[4,3-d]pyrimidine-2,5-diamine], the pIC50 was over 4.52. For `COc1ccccc1CNc1ncc2c(N3CCCC3)nccc2n1` [Compound 31, (2-Methoxy-benzyl)-(5-pyrrolidin-1-yl-pyrido[4,3-d]pyrimidin-2-yl)-amine], the pIC50 was over 4.52. Compound `O=C(NCc1ccco1)C1CCN(c2nccc3nc(NCc4ccccc4)ncc23)CC1` [Compound 60, 1-(2-Benzylamino-pyrido[4,3-d]pyrimidin-5-yl)-piperidine-4-carboxylic acid (furan-2-ylmethyl)-amide] has a pIC50 of over 4.52.
